Measured values: the NIST ThermoML archive (doi:10.1021/acs.jced.6b00516)
± gives the expanded uncertainty stated by the source.

What was measured:
[1] = xn = mol fraction of the nth substance listed; conditions: 102 kPa, Liquid, Concentric cylinders viscometry, x2 = 0
[2] = for viscosity / speed of sound / mass density: 102 kPa, Liquid; for viscosity: Concentric cylinders viscometry; for speed of sound: Frequency=3 MHz, Sing-around technique in a fixed-path interferometer; for mass density: Vibrating tube method; for surface tension liquid-gas: Sessile Drop

SMILES	viscosity ([1]; 293.15 K) [mPa·s]	viscosity ([2]; 293.15 K) [mPa·s]	speed of sound ([2]; 293.15 K) [m/s]	mass density ([2]; 293.15 K) [kg/m3]	viscosity ([2]; 303.15 K) [mPa·s]	speed of sound ([2]; 303.15 K) [m/s]	mass density ([2]; 303.15 K) [kg/m3]	viscosity ([2]; 313.15 K) [mPa·s]	speed of sound ([2]; 313.15 K) [m/s]	mass density ([2]; 313.15 K) [kg/m3]	viscosity ([2]; 323.15 K) [mPa·s]	speed of sound ([2]; 323.15 K) [m/s]	mass density ([2]; 323.15 K) [kg/m3]	viscosity ([2]; 333.15 K) [mPa·s]	speed of sound ([2]; 333.15 K) [m/s]	mass density ([2]; 333.15 K) [kg/m3]	viscosity ([2]; 343.15 K) [mPa·s]	mass density ([2]; 343.15 K) [kg/m3]	viscosity ([2]; 353.15 K) [mPa·s]	mass density ([2]; 353.15 K) [kg/m3]	also measured
Cc1ccccc1 [toluene] + CCCCC1CCCCC1	0.607 ± 0.011																				viscosity ([1]; 303.15 K): 0.54 ± 0.011 mPa·s; viscosity ([1]; 313.15 K): 0.483 ± 0.011 mPa·s; viscosity ([1]; 323.15 K): 0.434 ± 0.011 mPa·s; viscosity ([1]; 333.15 K): 0.391 ± 0.011 mPa·s; viscosity ([1]; 343.15 K): 0.349 ± 0.011 mPa·s; viscosity ([1]; 353.15 K): 0.307 ± 0.011 mPa·s
CCCCCCCCCCCCCCCC [hexadecane]		3.44 ± 0.02	1357.2 ± 0.8	773.41 ± 0.14	2.72 ± 0.02	1319.5 ± 0.8	766.47 ± 0.14	2.21 ± 0.02	1283.3 ± 0.8	759.55 ± 0.15	1.83 ± 0.01	1247.3 ± 0.8	752.63 ± 0.15	1.54 ± 0.01	1212 ± 0.8	745.71 ± 0.15	1.31 ± 0.01	738.8 ± 0.2	1.14 ± 0.01	731.9 ± 0.3	surface tension liquid-gas ([2]; 294 K): 27.1 ± 0.3 mN/m; viscosity ([2]; 363.15 K): 0.994 ± 0.012 mPa·s; viscosity ([2]; 373.15 K): 0.878 ± 0.012 mPa·s
CCCCCCCCCCCCCCCC [hexadecane] + CCCCC1CCCCC1	3.44 ± 0.02																				viscosity ([1]; 303.15 K): 2.72 ± 0.02 mPa·s; viscosity ([1]; 313.15 K): 2.21 ± 0.02 mPa·s; viscosity ([1]; 323.15 K): 1.83 ± 0.01 mPa·s; viscosity ([1]; 333.15 K): 1.54 ± 0.01 mPa·s; viscosity ([1]; 343.15 K): 1.31 ± 0.01 mPa·s; viscosity ([1]; 353.15 K): 1.14 ± 0.01 mPa·s
CCCCC1CCCCC1 [butylcyclohexane]		1.31 ± 0.01	1328.4 ± 0.8	799.33 ± 0.14	1.12 ± 0.01	1288.7 ± 0.8	791.82 ± 0.14	0.961 ± 0.012	1249.5 ± 0.8	784.28 ± 0.14	0.837 ± 0.012	1210.8 ± 0.8	776.7 ± 0.14	0.735 ± 0.011	1172.8 ± 0.8	769.09 ± 0.14	0.648 ± 0.011	761.4 ± 0.2	0.576 ± 0.021	753.7 ± 0.3	surface tension liquid-gas ([2]; 294 K): 26.7 ± 0.2 mN/m
Cc1ccccc1 [toluene]		0.607 ± 0.011	1326.6 ± 0.8	866.84 ± 0.13	0.54 ± 0.011	1283.6 ± 0.8	857.52 ± 0.13	0.483 ± 0.011	1241.1 ± 0.8	848.14 ± 0.14	0.434 ± 0.011	1199.2 ± 0.8	838.68 ± 0.14	0.391 ± 0.011	1157.7 ± 0.8	829.15 ± 0.14	0.349 ± 0.027	819.6 ± 0.2	0.307 ± 0.011	809.8 ± 0.5	surface tension liquid-gas ([2]; 294.2 K): 28.6 ± 0.2 mN/m
